Source: patent US6689806B1, “Indolinone compounds as kinase inhibitors” (Sugen, Inc., priority 1999, dated 2004)

Key:
EGFR [1] = target: T1, EGFR (Homo sapiens, UniProt P00533); experiment: EGF-induced BrdU incorporation assay; assay type: cell-based; design: expressed in transfected cells; host or cells: 3T3; conditions: 3T3 cells expressing human EGF-R, EGF 2 nM, read-out: BrdU DNA syn. EGFr IC50
Method: (§1) The cellular/biologic assays described herein measure the amount of DNA made in response to activation of a test kinase, which is a general measure of a proliferative response. The general procedure for this assay is as follows: a compound is introduced to cells expressing the test kinase, either naturally or recombinantly, for some period of time after which, if the test kinase is a receptor, a ligand known to activate the receptor is added. After incubation at least overnight, a DNA labeling reagent such as Bromodeoxy-uridine (BrdU) or 3H-thymidine is added. The amount of labeled DNA is detected with either an anti-BrdU antibody or by measuring radioactivity and is compared to control cells not contacted with a test compound.
EGF-Induced BrdU Incorporation Assay
(8) 3T3 cell line genetically engineered to express human EGF-R.
(1) Cells are seeded at 8000 cells/well in 10% CS, 2 mM Gin in DMEM, in a 96 well plate. Cells are incubated overnight at 37° C. in 5% CO2.
(§2) (2) After 24 hours, the cells are washed with PBS, and then are serum starved in serum free medium (0% CS DMEM with 0.1% BSA) for 24 hours.
(§3) (3) On day 3, ligand (EGF, 2 nM, prepared in DMEM with 0.1%/BSA) and test compounds are added to the cells simultaneously. The negative control wells receive serum free DMEM with 0.1% BSA only; the positive control cells receive the ligand (EGF) but no test compound. Test compounds are prepared in serum free DMEM with ligand in a 96 well plate, and serially diluted for 7 test concentrations.
(§4) (4) After 20 hours of ligand activation, diluted BrdU labeling reagent (1: 100 in DMEM, 0.1% BSA) is added and the cells are incubated with BrdU (final concentration=10 μM) for 1.5 hours.
(§5) (10) The absorbance of the samples are measured at 410 nm (in “dual wavelength” mode with a filter reading at 490 nm, as a reference wavelength) on a Dynatech ELISA plate reader.

PDGFR [2] = target: T2, PDGFR (Homo sapiens, UniProt P09619); experiment: PDGF-induced BrdU incorporation assay; assay type: cell-based; design: expressed in transfected cells; host or cells: 3T3; conditions: 3T3 cells expressing human PDGF-R, PDGF 3.8 nM
T2 sequence (P09619 33-1106): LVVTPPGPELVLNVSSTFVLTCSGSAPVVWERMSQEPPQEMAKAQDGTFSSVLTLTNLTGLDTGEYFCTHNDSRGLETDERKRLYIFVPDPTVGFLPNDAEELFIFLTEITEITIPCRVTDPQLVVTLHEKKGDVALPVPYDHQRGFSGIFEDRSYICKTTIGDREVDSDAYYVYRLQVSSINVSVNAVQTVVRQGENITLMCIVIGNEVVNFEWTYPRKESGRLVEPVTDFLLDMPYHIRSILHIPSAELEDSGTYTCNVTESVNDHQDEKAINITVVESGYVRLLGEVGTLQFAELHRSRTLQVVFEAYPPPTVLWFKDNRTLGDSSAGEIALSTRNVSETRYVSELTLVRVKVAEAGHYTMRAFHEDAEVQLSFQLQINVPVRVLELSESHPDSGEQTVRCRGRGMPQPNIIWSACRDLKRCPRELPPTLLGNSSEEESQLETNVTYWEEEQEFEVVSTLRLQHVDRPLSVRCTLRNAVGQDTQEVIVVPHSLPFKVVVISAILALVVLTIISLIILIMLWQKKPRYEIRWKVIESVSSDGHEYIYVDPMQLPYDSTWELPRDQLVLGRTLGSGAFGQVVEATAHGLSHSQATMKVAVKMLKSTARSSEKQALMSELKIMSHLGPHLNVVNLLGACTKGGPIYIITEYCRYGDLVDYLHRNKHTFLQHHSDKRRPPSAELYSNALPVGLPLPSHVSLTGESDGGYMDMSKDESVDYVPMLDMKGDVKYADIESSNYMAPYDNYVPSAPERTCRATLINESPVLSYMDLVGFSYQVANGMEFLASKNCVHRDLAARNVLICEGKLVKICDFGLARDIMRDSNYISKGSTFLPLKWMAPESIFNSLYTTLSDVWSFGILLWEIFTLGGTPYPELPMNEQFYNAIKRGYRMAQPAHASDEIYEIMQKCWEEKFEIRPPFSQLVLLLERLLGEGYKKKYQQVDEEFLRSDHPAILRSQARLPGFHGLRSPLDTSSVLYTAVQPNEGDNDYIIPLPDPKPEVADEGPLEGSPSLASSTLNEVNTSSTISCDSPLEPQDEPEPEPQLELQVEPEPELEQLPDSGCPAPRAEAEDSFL
Method: as §1
PDGF-Induced BrdU Incorporation Assay
(8) 3T3 cell line genetically engineered to express human PDGF-R.
(1) Cells are seeded at 8000 cells/well in DMEM, 10% CS, 2 mM Gln in a 96 well plate. Cells are incubated overnight at 37° C. in 5% CO2.
as §2
as §3, with “(PDGF, 3.8” for “(EGF, 2”, “0.1% BSA)” for “0.1%/BSA)”, “(PDGF)” for “(EGF)”
as §4, §5

PDGFR [3] = target: T2, PDGFR; experiment: Biochemical PDGFR assay (ELISA); design: expressed in transfected cells; host or cells: NIH 3T3; conditions: read-out: PDGFr biochem IC50
Method: This assay measures the in vitro kinase activity of PDGFR using ELISA.
6. PDGFR-β expressing NlH 3T3 cell lysate.
1. Coat Corning 96 well ELISA plates with 0.5 μg 28D4C10 in 100 μL PBS per well, store overnight at 4° C.
5. Dilute lysate in HNTG (10 μg lysate/100 μL HNTG)
6. Add 100 μL of diluted lysate to each well. Shake at room temperature for 60 min.
8. Add 80 μL working kinase buffer mix to ELISA plate containing captured PDGFR.
9. Dilute test compound 1:10 in TBS in 96-well polypropylene plates (i.e., 10 μL compound+90 μL TBS).
10. Add 10 μL diluted test compound to ELISA plate.
11. Incubate for 30 minutes while shaking at room temperature.
12. Add 10 μL ATP directly to all wells except negative control well (final well volume should be approximately 100 μL with 20 μM ATP in each well.) Incubate 30 minutes while shaking.
13. After 30 minutes, stop reaction by adding 10 μL of 200 mM EDTA (pH 8.0) to each well.
15. Add 100 μL anti-phosphotyrosine (1:3000 dilution in TBST) per well. Incubate 30-45 min. at room temperature, with shaking.
17. Add 100 μL Biosource Goat anti-rabbit IgG peroxidase conjugate (1:2000 dilution in TBST) to each well. Incubate 30 min. at room temperature, with shaking.
19. Add 100 μL of ABTS/H2O2 solution to each well.
22. Read assay on Dynatech MR7000 ELISA reader: test filter: 410 nM, reference filter: 630 nM.

EGFR [4] = target: T1, EGFR; experiment: Biochemical EGFR assay (ELISA); design: A431 cell lysate; endogenous in cells; host or cells: A431; conditions: read-out: EGFr biochem IC50
Method in brief: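 EGFR is captured from cell lysate onto SUMO1-coated plates and incubated with compound diluted in TBS. The kinase reaction is stopped after 5 min with EDTA. Substrate phosphotyrosine is detected with anti-phosphotyrosine and peroxidase-linked secondary antibody, then ABTS/H2O2 read at 410 nm (reference 630 nm).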

[5] = Table 7, read-out: BrdU DNA syn. PDGFr IC50
[6] = Table 7, in vitro kinase activity
[7] = Table 5, read-out: BrdU DNA syn. PDFGr IC50
[8] = Table 5, in vitro kinase activity

T1 sequence (P00533 25-1210): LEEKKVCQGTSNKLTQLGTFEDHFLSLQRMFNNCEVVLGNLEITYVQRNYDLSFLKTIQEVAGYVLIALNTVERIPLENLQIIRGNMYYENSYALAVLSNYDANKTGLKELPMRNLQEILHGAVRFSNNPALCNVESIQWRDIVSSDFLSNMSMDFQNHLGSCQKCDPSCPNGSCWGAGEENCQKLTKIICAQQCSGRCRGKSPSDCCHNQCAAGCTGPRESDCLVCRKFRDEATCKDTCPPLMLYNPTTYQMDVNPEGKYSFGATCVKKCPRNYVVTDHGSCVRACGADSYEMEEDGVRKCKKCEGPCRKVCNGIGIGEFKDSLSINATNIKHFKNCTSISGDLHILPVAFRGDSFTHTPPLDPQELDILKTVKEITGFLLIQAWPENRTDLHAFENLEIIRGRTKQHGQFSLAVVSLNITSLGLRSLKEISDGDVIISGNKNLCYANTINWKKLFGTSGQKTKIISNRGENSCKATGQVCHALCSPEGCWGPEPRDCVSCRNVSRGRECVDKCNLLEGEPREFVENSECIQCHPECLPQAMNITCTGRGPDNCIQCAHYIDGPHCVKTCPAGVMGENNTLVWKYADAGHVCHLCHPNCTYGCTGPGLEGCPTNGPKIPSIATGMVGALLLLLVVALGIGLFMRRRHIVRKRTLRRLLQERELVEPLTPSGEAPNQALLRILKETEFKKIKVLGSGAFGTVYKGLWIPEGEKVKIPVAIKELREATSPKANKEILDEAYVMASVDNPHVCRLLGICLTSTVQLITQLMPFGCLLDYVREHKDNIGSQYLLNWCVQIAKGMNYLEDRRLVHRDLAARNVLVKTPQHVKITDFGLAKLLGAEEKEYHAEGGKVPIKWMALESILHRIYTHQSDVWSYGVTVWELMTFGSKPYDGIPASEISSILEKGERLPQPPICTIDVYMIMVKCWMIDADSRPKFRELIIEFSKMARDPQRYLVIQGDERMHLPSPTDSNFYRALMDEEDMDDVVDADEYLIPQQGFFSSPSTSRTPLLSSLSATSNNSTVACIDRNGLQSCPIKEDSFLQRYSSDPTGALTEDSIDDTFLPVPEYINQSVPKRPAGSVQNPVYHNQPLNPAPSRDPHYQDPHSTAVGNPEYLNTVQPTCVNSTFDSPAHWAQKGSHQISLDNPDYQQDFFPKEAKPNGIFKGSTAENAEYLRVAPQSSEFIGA

Row | SMILES | IC50 (EGFR [1]; Table 7) [µM] | IC50 (PDGFR [2]; [5]) [µM] | IC50 (PDGFR [3]; [6]) [µM] | IC50 (EGFR [4]; [6]) [µM] | IC50 (EGFR [1]; Table 5) [µM] | IC50 (PDGFR [2]; [7]) [µM] | IC50 (PDGFR [3]; [8]) [µM] | IC50 (EGFR [4]; [8]) [µM]
1 | Cc1ccc(O)c(C=C2C(=O)Nc3cccc(CCO)c32)n1 (racemic) [IN-022, 4-(2-Hydroxy-ethyl)-3-(3-hydroxy-6-methyl-pyridin-2-ylmethylene)-1,3-dihydro-indol-2-one] | > 50 | > 50 | > 100 | > 100 | – | – | – | –
2 | O=C1Nc2ccccc2C1Cc1ccc2[nH]ccc2c1 (stereo not drawn) [AAI-17, 3-(1H-Indol-5-ylmethyl)-1,3-dihydroindol-2-one] | – | – | – | – | > 50 | > 50 | > 100 | > 100
3 | Cc1[nH]c(CC2C(=O)Nc3ccccc32)c(C)c1CCCN(C)C (stereo not drawn) [AAI-18, 3-[4-(3-Dimethylaminopropyl)-3,5-dimethyl-1H-pyrrol-2-ylmethyl]-1,3-dihydroindol-2-one] | – | – | – | – | > 50 | 3.87 | 0.56 | > 100
4 | O=C1Nc2cc(-c3ccccc3)ccc2C1Cc1cccc(F)c1O (stereo not drawn) [AAI-24, 3-(3-Fluoro-2-hydroxybenzyl)-6-phenyl-1,3-dihydroindol-2-one] | – | – | – | – | > 50 | > 50 | > 100 | > 100
5 | COc1ccc(CC2C(=O)Nc3cc(-c4ccccc4)ccc32)c(O)c1 (stereo not drawn) [AAI-25, 3-(2-Hydroxy-4-methoxybenzyl)-6-phenyl-1,3-dihydroindol-2-one] | – | – | – | – | > 50 | > 50 | > 100 | > 100
6 | Cc1cccc(CC2C(=O)Nc3cccc(CCO)c32)n1 (stereo not drawn) [AAI-27, 4-(2-Hydroxyethyl)-3-(6-methylpyridin-2-ylmethyl)-1,3-dihydroindol-2-one] | – | – | – | – | > 50 | > 50 | > 100 | > 100
7 | CC(C)c1cccc(OCCc2cccc3c2CC(=O)N3)c1 [IN-001, 4-[2-(3-Isopropyl-phenoxy)-ethyl]-1,3-dihydro-indol-2-one] | 32.5 | 35.2 | > 100 | > 100 | – | – | – | –
8 | CC(C)c1ccccc1OCCc1cccc2c1CC(=O)N2 [IN-002, 4-[2-(2-Isopropyl-phenoxy)-ethyl]-1,3-dihydro-indol-2-one] | 41.5 | 37.1 | > 100 | > 100 | – | – | – | –
9 | O=C1Cc2c(CCOc3cccc(-c4ccccc4)c3)cccc2N1 [IN-003, 4-[2-(Biphenyl-3-yloxy)-ethyl]-1,3-dihydro-indol-2-one] | 29 | 22 | 20.2 | > 100 | – | – | – | –

Other lines, results leading:

Row | IC50 (EGFR [1]; Table 7) [µM] | IC50 (PDGFR [2]; [5]) [µM] | IC50 (PDGFR [3]; [6]) [µM] | IC50 (EGFR [4]; [6]) [µM] | IC50 (EGFR [1]; Table 5) [µM] | IC50 (PDGFR [2]; [7]) [µM] | IC50 (PDGFR [3]; [8]) [µM] | IC50 (EGFR [4]; [8]) [µM] | SMILES
10 | – | – | – | – | 30 | 32.7 | > 100 | > 100 | COc1ccc(CC2C(=O)Nc3ccc(F)cc32)cc1C1CCCC1 (stereo not drawn) [AAI-5, 3-(3-Cyclopentyl-4-methoxybenzyl)-5-fluoro-1,3-dihydroindol-2-one]
11 | – | – | – | – | > 50 | > 50 | > 100 | > 100 | COc1ccc(CC2C(=O)Nc3cc(NC(C)=O)ccc32)cc1-c1cccs1 (stereo not drawn) [AAI-6, N-[3-(4-Methoxy-3-thiophen-2-ylbenzyl)-2-oxo-2,3-dihydro-1H-indol-6-yl]-acetamide]
12 | – | – | – | – | 28.1 | 31.1 | > 100 | > 100 | CC(=O)Nc1ccc2c(c1)NC(=O)C2Cc1ccc(OCCN2CCOCC2)c(C2CCCCC2)c1 (stereo not drawn) [AAI-7, N-{3-[3-Cyclohexyl-4-(2-morpholin-4-ylethoxy)-benzyl]-2-oxo-2,3-dihydro-1H-indol-6-yl}-acetamide]
13 | – | – | – | – | > 50 | > 50 | > 100 | > 100 | COc1ccc(CC2C(=O)Nc3ccc(CCN4CCOCC4)cc32)cc1-c1ccsc1 (stereo not drawn) [AAI-8, 3-(4-Methoxy-3-thiophen-3-ylbenzyl)-5-(2-morpholin-4-ylethyl)-1,3-dihydroindol-2-one]
14 | – | – | – | – | > 50 | > 50 | > 100 | > 100 | COc1c(C(C)C)cc(CC2C(=O)Nc3ccccc32)cc1C(C)C (stereo not drawn) [AAI-10, 3-(3,5-Diisopropyl-4-methoxybenzyl)-1,3-dihydroindol-2-one]
15 | – | – | – | – | > 50 | > 50 | > 100 | > 100 | O=C1Nc2ccc(F)cc2C1Cc1ccc(O)c(C2CCCC2)c1 (stereo not drawn) [AAI-11, 3-(3-Cyclopentyl-4-hydroxybenzyl)-5-fluoro-1,3-dihydroindol-2-one]
16 | – | – | – | – | > 50 | > 50 | > 100 | > 100 | COc1cccc(-c2ccc3c(c2)NC(=O)C3Cc2ccccc2O)c1 (stereo not drawn) [AAI-13, 3-(2-Hydroxybenzyl)-6-(3-methoxyphenyl)-1,3-dihydroindol-2-one]
17 | – | – | – | – | > 50 | > 50 | > 100 | > 100 | Cc1cccc2c1C(Cc1ccc3[nH]ccc3c1)C(=O)N2 (stereo not drawn) [AAI-16, 3-(1H-Indol-5-ylmethyl)-4-methyl-1,3-dihydroindol-2-one]
18 | – | – | – | – | 38.5 | 8.81 | 2.13 | > 100 | COc1ccccc1-c1ccc2c(c1)NC(=O)C2Cc1[nH]c(C)c(CCCN(C)C)c1C (stereo not drawn) [AAI-20, 3-[4-(3-Dimethylamino-propyl)-3,5-dimethyl-1H-pyrrol-2-ylmethyl]-6-(2-methoxy-phenyl)-1,3-dihydro-indol-2-one]
19 | – | – | – | – | 27.8 | 1.2 | 3.42 | 48.7 | COc1cccc(-c2ccc3c(c2)NC(=O)C3Cc2[nH]c(C)c(CCCN(C)C)c2C)c1 (stereo not drawn) [AAI-21, 3-[4-(3-Dimethylaminopropyl)-3,5-dimethyl-1H-pyrrol-2-ylmethyl]-6-(3-methoxyphenyl)-1,3-dihydroindol-2-one]
20 | – | – | – | – | 27.6 | 1.15 | 80 | > 100 | COc1ccc(-c2ccc3c(c2)NC(=O)C3Cc2[nH]c(C)c(CCCN(C)C)c2C)cc1 (stereo not drawn) [AAI-22, 3-[4-(3-Dimethylaminopropyl)-3,5-dimethyl-1H-pyrrol-2-ylmethyl]-6-(4-methoxyphenyl)-1,3-dihydroindol-2-one]
21 | – | – | – | – | 32.2 | 0.35 | 0.81 | > 100 | Cc1[nH]c(CC2C(=O)Nc3ccc(Cl)cc32)c(C)c1CCCN(C)C (stereo not drawn) [AAI-23, 5-Chloro-3-[4-(3-dimethylaminopropyl)-3,5-dimethyl-1H-pyrrol-2-ylmethyl]-1,3-dihydroindol-2-one]
